Test: method code SF-AS, from Yamada, T.; Tsukamoto, Y.; Shimamura, H.; Banno, S.; Sato, M. (1983). Pyridazinones 4. synthesis anti secretory and anti ulcer activities of urea derivatives. Eur J Med Chem, 18(3)209-214.

Structure (SMILES) | logP
CCNC(=O)NCCCCCn1nc(-c2ccccc2)ccc1=O | 1.76
CNC(=O)NCCCCCCCCn1nc(-c2ccccc2)ccc1=O | 0.84
CCCNC(=O)NCCCCn1nc(-c2ccccc2)ccc1=O | 1.71
CN(C)C(=O)NCCCCCn1nc(-c2ccccc2)ccc1=O | 1.74
NC(=O)NCCCn1nc(-c2ccccc2)ccc1=O | 0.69
CCNC(=O)NCCCCn1nc(-c2ccccc2)ccc1=O | 1.83
NC(=O)NCCCCCCn1nc(-c2ccccc2)ccc1=O | 1.82
O=C(NCCCCCn1nc(-c2ccccc2)ccc1=O)NC1CCCCC1 | 2.03
CNC(=O)NCCn1nc(-c2ccccc2)ccc1=O | 0.39
O=C(NCCCCn1nc(-c2ccccc2)ccc1=O)Nc1ccccc1 | 2.32
NC(=O)NCCn1nc(-c2ccccc2)ccc1=O | 0.52
CNC(=O)NCCCCn1nc(-c2ccccc2)ccc1=O | 1.23
CCN(CC)C(=O)NCCCn1nc(-c2ccccc2)ccc1=O | 1.72
NC(=O)NCCCCCn1nc(-c2ccccc2)ccc1=O | 1.08
CNC(=O)NCCCn1nc(-c2ccccc2)ccc1=O | 1.16
CCNC(=O)NCCCCCCn1nc(-c2ccccc2)ccc1=O | 1.81

Structure (SMILES) | logP
CNC(=O)NCCCCCCCn1nc(-c2ccccc2)ccc1=O | 1.06
CN(C)C(=O)NCCCn1nc(-c2ccccc2)ccc1=O | 1.61
CNC(=O)NCCCCCn1nc(-c2ccccc2)ccc1=O | 1.26
CNC(=O)NCCCCCCn1nc(-c2ccccc2)ccc1=O | 1.31
CN(C)C(=O)NCCCCn1nc(-c2ccccc2)ccc1=O | 1.58
CCCCNC(=O)NCCCCn1nc(-c2ccccc2)ccc1=O | 2.2
CCNC(=O)NCCCn1nc(-c2ccccc2)ccc1=O | 1.68
CC(C)NC(=O)NCCCCn1nc(-c2ccccc2)ccc1=O | 1.91
Cc1ccc(S(=O)(=O)NC(=O)NCCCCn2nc(-c3ccccc3)ccc2=O)cc1 | 1.77
CCN(CC)C(=O)NCCCCCCn1nc(-c2ccccc2)ccc1=O | 1.85
NC(=O)NCCCCn1nc(-c2ccccc2)ccc1=O | 1.21
CCN(CC)C(=O)NCCCCn1nc(-c2ccccc2)ccc1=O | 1.89
CC(C)(C)NC(=O)NCCCCn1nc(-c2ccccc2)ccc1=O | 2.07
O=C(NCCCCn1nc(-c2ccccc2)ccc1=O)NC1CCCCC1 | 1.99
CN(C)C(=O)NCCCCCCn1nc(-c2ccccc2)ccc1=O | 1.45
